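Test compounds were applied to cells in 96-well plates for 48 hours at 5 doses. TGI denotes the concentration required for complete inhibition of growth.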

The values that follow come from PubChem BioAssay (NCI).

Some test systems named below: SN12C renal; DLD-1 colon; XF 498 CNS; M19-MEL melanoma; HCC-2998 colon; DMS 114 small cell lung; LXFL 529 NSCLC; DMS 273 small cell lung; KM20L2 colon; SNB-78 CNS; HOP-18 NSCLC; RXF-631 renal.
Holding throughout (assay): inhibition of tumour cell growth, NCI panel, 48 h

Take `CC(C)(C)[C@H]1CO[C@]2(c3ccccc3)[C@@H]3C[C@@H]3C(=O)N12`: the TGI with SN12C renal, in the assay with DLD-1 colon, with XF 498 CNS, in the assay with M19-MEL melanoma, with HCC-2998 colon and in the assay on DMS 114 small cell lung was greater than 100 µM each time. The TGI with LXFL 529 NSCLC, in the assay with DMS 273 small cell lung and with KM20L2 colon was greater than 100 µM in each case.

For `CCN(CC)C(=S)SCC(=O)Nc1nc2c(s1)CCCC2`, the TGI with SN12C renal, in the assay on SNB-78 CNS, with DLD-1 colon, in the assay on XF 498 CNS, in the assay with M19-MEL melanoma and with HCC-2998 colon was greater than 100 µM in each case. For the same compound, the TGI in the assay on DMS 114 small cell lung, with LXFL 529 NSCLC, with DMS 273 small cell lung and with KM20L2 colon was greater than 100 µM in each case.

In the case of `CSc1ccc(NC(=O)C2c3[nH]c4ccccc4c3C3CCC(C(C)(C)C)CC3C2C(=O)O)cc1` (stereo unspecified), the TGI is 36.8 µM in the assay on SN12C renal; 53.2 µM in the assay with SNB-78 CNS; 54.6 µM in the assay on DLD-1 colon; 39.7 µM with XF 498 CNS; 57.3 µM in the assay on M19-MEL melanoma; greater than 100 µM in the assay with HCC-2998 colon. Further, the TGI in the assay on HOP-18 NSCLC stood at 35.9 µM; in the assay with DMS 114 small cell lung, 63.4 µM; with LXFL 529 NSCLC it was 31.8 µM; in the assay with DMS 273 small cell lung it was 30 µM; in the assay on KM20L2 colon, 32.6 µM.

For `C=CCCCN1CCCC(C)C1=S` (stereo unspecified), the TGI with DLD-1 colon, with XF 498 CNS, in the assay on RXF-631 renal, in the assay with M19-MEL melanoma, with HCC-2998 colon and in the assay on HOP-18 NSCLC was greater than 100 µM throughout. Besides, the TGI in the assay with DMS 114 small cell lung, in the assay on DMS 273 small cell lung and with KM20L2 colon was greater than 100 µM each time.

Turning to `C[n+]1c2ccccc2c(CNCC(=O)O)c2ccccc21`, the TGI came to 2.81 µM in the assay with SN12C renal; 44.3 µM in the assay on SNB-78 CNS; 2 µM in the assay with DLD-1 colon; 3.85 µM with XF 498 CNS; 16.5 µM with M19-MEL melanoma; 18.1 µM in the assay on HCC-2998 colon. Further, the TGI in the assay on HOP-18 NSCLC was found to be 22.6 µM; in the assay with DMS 114 small cell lung, 4.83 µM; with LXFL 529 NSCLC, 3.15 µM; in the assay on DMS 273 small cell lung, 2.74 µM; in the assay on KM20L2 colon, 2.44 µM.

In the case of `CC1=NN2C(c3ccc([N+](=O)[O-])cc3)=CSC2=NC(C)(C)C1`, the TGI in the assay with SN12C renal, in the assay with SNB-78 CNS, in the assay with DLD-1 colon, with XF 498 CNS, with RXF-631 renal and in the assay with M19-MEL melanoma was greater than 100 µM throughout. The TGI in the assay with HCC-2998 colon, in the assay with HOP-18 NSCLC, in the assay with DMS 114 small cell lung, with LXFL 529 NSCLC, in the assay on DMS 273 small cell lung and in the assay with KM20L2 colon was greater than 100 µM each time.

Regarding `ClCC[N-]CC[N-]CCCl.ClCC[N-]CC[N-]CCCl.[O-][Cl+3]([O-])([O-])O.[Zn+2]`, the TGI in the assay with SN12C renal was greater than 100 µM; in the assay on SNB-78 CNS, greater than 76.6 µM; with DLD-1 colon it was 35 µM; with M19-MEL melanoma, greater than 57.1 µM; in the assay on HCC-2998 colon, greater than 100 µM; in the assay on HOP-18 NSCLC, 56.5 µM. Moreover, the TGI with DMS 114 small cell lung is greater than 55.8 µM; with LXFL 529 NSCLC it was 35.9 µM; in the assay with DMS 273 small cell lung, greater than 60.2 µM; in the assay with KM20L2 colon it was greater than 100 µM.

Take `COc1ccccc1/C=C1\S/C(=N/Nc2nc(C)c(C(C)=O)s2)NC1=O`: the TGI in the assay on SN12C renal and in the assay on HCC-2998 colon was greater than 100 µM in each case.

As for `CC/C(Cl)=N\OC(=O)Nc1ccc(OC)c(C)c1`, the TGI in the assay with SN12C renal came out at 32.4 µM; in the assay with HCC-2998 colon, 43.2 µM.

For the compound `Cc1ccc(S(=O)(=O)N/N=C2\CCCCCCCCCCC2CN(C)C)cc1` (stereo unspecified), the results for the TGI in the assay with SN12C renal and with HCC-2998 colon were 44.4 µM and 20.8 µM, respectively.

Turning to `COC1=C2CC(C)CC(OC)C(OC(=O)CN)[C@H](C)/C=C(\C)C(OC(N)=O)C(OC)/C=C\C=C(/C)C(=O)NC(=CC1=O)C2=O` (stereo partly specified), the TGI amounted to 4.91 µM with SN12C renal and 7.81 µM in the assay with HCC-2998 colon.

Consider `COc1ccc(CCNC(=O)c2ccccc2C2c3ccc(OCc4ccccc4)cc3Oc3cc(OCc4ccccc4)ccc32)cc1OC`, for which the TGI in the assay with SN12C renal and in the assay with HCC-2998 colon was greater than 100 µM in each case.

For `Cc1c2ccncc2c(C)c2c1[nH]c1ccc(Oc3ccccc3)cc12`, the TGI in the assay with SN12C renal stood at 4.69 µM; in the assay on SNB-78 CNS, 6.68 µM; in the assay on XF 498 CNS, 3.61 µM; with HCC-2998 colon, 3.18 µM; with HOP-18 NSCLC, 30.4 µM; in the assay with DMS 114 small cell lung it was 3.35 µM. Besides, the TGI with LXFL 529 NSCLC was determined as 4.28 µM; with DMS 273 small cell lung it was 3.07 µM; in the assay with KM20L2 colon, 3.36 µM.

Take `Cc1ccc(S(=O)(=O)N/N=C2\CCC3(O)CC2(C)CCC2C3CC2(C)C)cc1` (stereo unspecified): the TGI in the assay on SN12C renal and with HCC-2998 colon was greater than 100 µM throughout.

Turning to `COC(=O)CC(C(C(=O)OC)C(=O)OC)N1C(=O)OC(c2ccccc2)C1c1ccccc1` (stereo unspecified), the TGI with SN12C renal is greater than 100 µM; in the assay on DLD-1 colon, greater than 100 µM; with M19-MEL melanoma, greater than 100 µM; with HCC-2998 colon, 93.1 µM; in the assay with HOP-18 NSCLC, greater than 100 µM; in the assay on DMS 114 small cell lung, greater than 100 µM. Further, the TGI with LXFL 529 NSCLC, in the assay with DMS 273 small cell lung and in the assay with KM20L2 colon was greater than 100 µM each time.

On to `COC(=O)c1cc(O)c(O)c(O)c1-c1c(O)c(O)c(O)c(SC[C@H](NC(=O)OCc2ccccc2)C(=O)OCc2ccccc2)c1C(=O)OC`, for which the TGI is 41.8 µM in the assay on SN12C renal and greater than 100 µM in the assay with HCC-2998 colon.

Take `C/C(=N\Nc1nc2ccccc2[nH]1)c1cnccn1`: the TGI with SN12C renal was found to be 12.4 µM; with HCC-2998 colon it was 59.8 µM.
